Structures are written as SMILES. The source made the active and inactive calls. No cut-off for these calls is given here.

Assay [1] has as its target T1, Tyrosine-protein phosphatase non-receptor type 1 (Homo sapiens, UniProt P18031).
T1 sequence (P18031 whole entry): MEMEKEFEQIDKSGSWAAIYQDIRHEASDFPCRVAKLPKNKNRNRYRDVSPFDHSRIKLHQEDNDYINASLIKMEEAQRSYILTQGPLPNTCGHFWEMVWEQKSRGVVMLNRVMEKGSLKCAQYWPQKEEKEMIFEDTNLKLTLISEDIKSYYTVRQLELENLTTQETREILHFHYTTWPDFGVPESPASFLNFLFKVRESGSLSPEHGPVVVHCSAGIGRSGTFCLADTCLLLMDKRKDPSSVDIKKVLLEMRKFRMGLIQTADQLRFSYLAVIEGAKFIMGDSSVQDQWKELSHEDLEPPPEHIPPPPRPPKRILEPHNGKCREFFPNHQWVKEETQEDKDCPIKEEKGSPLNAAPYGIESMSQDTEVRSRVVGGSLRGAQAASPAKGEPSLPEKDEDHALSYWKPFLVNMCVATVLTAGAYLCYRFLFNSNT
The assay can be described thus: (§1) Inhibition of PTP1B by colorimetric assay.

The target in assay [2] is T2, Tyrosine-protein phosphatase non-receptor type 1 (Homo sapiens) (UniProt P18031).
T2 sequence (whole entry): T1 sequence (P18031 whole entry)
The description is as §1.

Regarding `O=[N+]([O-])c1ccc(/C=C/c2ccc(O)c(O)c2)c([N+](=O)[O-])c1`, in assay [1], 190 µM corresponded to half-maximal inhibition (IC50).

Take `C(=C/c1ccccc1)/c1ccccc1`: the outcome in assay [2] was inactive.

In the case of `COC(=O)c1ccc(/C=C/c2ccc(OC)c(OC)c2)cc1`, the outcome in assay [2] was inactive.

Regarding `O=C(NCC1CCCO1)c1ccc(/C=C\c2ccc(O)c(O)c2)cc1` (stereo unspecified), the outcome in assay [2] was inactive.

With `COc1cc(/C=C/C(=O)CC(=O)/C=C/c2ccc(O)c(OC)c2)ccc1O`, in assay [2], the result was inactive.

Consider `O=C(O)/C=C/c1ccc(O)c(O)c1`, for which, in assay [2], the outcome was inactive.

With `COC(=O)c1ccc(/C=C/c2ccc(O)c(O)c2)cc1`, the IC50 (as a rule, the concentration that gives 50% inhibition) in assay [1] was 25.6 µM.

`CCCCCCCCCCCCCCCC(=O)C1=C(O)[C@@H](CO)OC1=O`: the half-maximal inhibitory concentration (IC50) in assay [1] was 45 µM.

In assay [1], `OCc1ccc(/C=C/c2ccc(O)c(O)c2)cc1` came in with an IC50 of 260 µM.

`OCc1ccc(/C=C\c2ccc(O)c(O)c2)cc1` registered an IC50 in assay [1] of 138 µM.

The compound `O=[N+]([O-])c1ccc(/C=C/c2cccc(O)c2O)c([N+](=O)[O-])c1` came in with an IC50 in assay [1] of 168 µM.

In the case of `O=C(/C=C/c1ccc(O)c(O)c1)Nc1ccccc1`, in assay [2], the result was inactive.

For `CCN(CC)C(=O)/C=C/c1ccc(O)c(O)c1`, the outcome in assay [2] was inactive.

Take `COC(=O)C=Cc1ccc(/C=C\c2ccc(O)c(O)c2)cc1`: the outcome in assay [2] was inactive.

`O=C(Nc1ccccc1)c1ccc(/C=C/c2ccc(O)c(O)c2)cc1` had an IC50 in assay [1] of 27.2 µM.

Turning to `O=[N+]([O-])c1ccc(/C=C/c2cccc(O)c2)c([N+](=O)[O-])c1`, in assay [2], the outcome was inactive.

`O=C(NCC1CCCO1)c1ccc(/C=C/c2ccc(O)c(O)c2)cc1` (stereo unspecified) returned an IC50 in assay [1] of 35.4 µM.

Consider `COC(=O)/C=C/c1ccc(/C=C/c2ccc(OC)c(OC)c2)cc1`, for which, in assay [2], the outcome was inactive.

Take `COc1ccc(/C=C/c2ccc(O)cc2)cc1OC`: the result in assay [2] was inactive.

As for `COC(=O)/C=C/c1ccc(/C=C/c2ccc(O)c(O)c2)cc1`, the half-inhibitory concentration (IC50) in assay [1] worked out at 14.9 µM.

As for `O=Cc1ccc(/C=C/c2ccc(O)c(O)c2)cc1`, the IC50 in assay [1] was 101 µM.
